Patent US20260256790A1, “DEBIO-0123 IN COMBINATION WITH TEMOZOLOMIDE AND RADIOTHERAPY FOR USE IN TREATING GLIOMA” (Debiopharm International S.A., priority 2023, published 2026)
“And” between values parts separate entries of the source, which are not always exact repeats. Equal entries are not always repeated. Where two headings read alike, the source gives them in different places.

Experiments:
[1] = Drug concentration in monkey brain and plasma after daily oral administration for 91 days; assay type: in vivo, cynomolgus monkeys; conditions: 10 mg/kg oral once a day for 91 days; for Kp at 24 h / concentration at 24 h: female, cynomolgus monkey, 10 mg/kg; for Kp at 24 h: brain (left forebrain) / plasma, po; for concentration at 24 h: oral
Description: Compound of formula (I) was orally given to 3 female cynomolgus monkeys by gavage once a day for 91 days. The volume of administration was 5 mL/kg, and the vehicle was an aqueous solution of 0.5% (w/v) methylcellulose (cps 400) and 1% (w/v) Tween 80. The Compound of formula (I) dose was 10 mg/kg; this dose level was assessed in this study to be the […] no adverse effect level (NOAEL) based on general toxicology evaluation. The animals were necropsied 24 hours after the last dose after an overnight period without food. A sample from brain tissue (left forebrain) was collected from each animal, snap frozen in liquid nitrogen. and stored frozen at <−50° C. Blood samples were taken from the femoral vein into tubes containing K2EDTA, fully inverted approximately 10 times, and placed on crushed wet ice until centrifugation at 2300 g for 10 minutes at approximately 4° C. The resultant plasma was separated, transferred into polypropylene tubes, and frozen at <−50° C. Tissue and plasma samples were transported frozen on dry ice to the respective sites of analysis.
The monkey plasma samples were analyzed for their contents in Compound of formula (I) and N^32-desmethyl-Compound of formula (I) as follows. The plasma samples were fortified in human K2-EDTA plasma (1:9 monkey:human volume ratio) prior to extraction. All solution preparations and dilutions were conducted under sodium vapor light and in “low-binding” quality polypropylene tubes and deep-well plates. The analytes and internal standards (^13CD6-Compound of formula (I) and D7-N^32-desmethyl-Compound of formula (I)) were extracted by protein precipitation with 5M aqueous urea (40 μL for 50 μL plasma), and then analyzed by LC-MS/MS. Chromatographic separation was achieved on an Synergi Polar-RP, 80A, 4 μm 75×2.00 mm column (Phenomenex) with gradient elution using a mixture of 0.1% formic acid in water as eluent A and 0.1% formic acid in acetonitrile as eluent B (5% B from 0 to 0.50 min, 42% B at 4.5 min, 95% B from 4.60 min to 5.50 min, 5% B at 5.60 min, 100% B at 5.70 min, 5% B at 6.40 min, 100% B at 6.50 min, 5% B at 7.00 min; 800 μl/min, 70° C.). Detection was accomplished with a AB Sciex 6500+ mass spectrometer utilizing electrospray MS/MS in positive ion multiple reaction monitoring mode (MRM). The lower limits of quantification for Compound of formula (I) and N^32-desmethyl-Compound of formula (I) were 5.00 ng/mL and 2.50 ng/mL, respectively.
The monkey brain tissue samples were analyzed for their contents in Compound of formula (I) and N^32-desmethyl-Compound of formula (I) as follows. Tissue samples were homogenized in human plasma (1 mg tissue for 10 μL plasma) at +4° C. using a Precelly Evolution system. The analytes (Compound of formula (I) and N^32-desmethyl-Compound of formula (I)) were extracted by protein precipitation with methanol/acetonitrile (9:1, v:v) containing the internal standards (^13CD6-Compound of formula (I) and D7-N^32-desmethyl-Compound of formula (I)) and then analyzed by UHPLC-MS/MS. Chromatographic separation was achieved on a HSS T3 1.8 μm, 2.1×100 mme column (Waters) with gradient elution using a mixture of 0.1% formic acid in water as eluent A, and 0.1% formic acid in acetonitrile as eluent B (20% B from 0 to 0.50 min, 90% B from 1.80 min to 2.30 min, 20% B at 2.60 min; 0.6 mL/min, room temperature). Detection was accomplished with Xevo TQ-S mass spectrometer (Waters) utilizing electrospray MS/MS in positive ion multiple reaction monitoring mode (MRM). The lower limits of quantification for Compound of formula (I) and N^32-desmethyl-Compound of formula (I) were 55.00 ng/g tissue and 22.00 ng/g tissue, respectively.

U87-MG-luc GBM cell line = experiment: U87-MG-luc tumors implanted cerebrally in mice, monotherapy; assay type: in vivo, athymic nude mice; conditions: 30 mg/kg oral QD, 28 days, p=0.0023 on day 28
Description: Male athymic nude mice were injected A) subcutaneously (s.c.) or B) cerebrally (i.e.) with 1×10^5 U87-MG-luc cells in Matrigel. Animals implanted i.e. were imaged to monitor tumor establishment and growth throughout the study using an In Vivo Imaging System (IVIS) once weekly, detecting tumor bioluminescence (BLI) in photons. For animals implanted s.c., tumor growth was monitored twice weekly by caliper measurement and tumor volume calculated using the equation V=(L×W×W)/2, where V is tumor volume, L is tumor length (the longest tumor dimension) and W is tumor width (the longest tumor dimension perpendicular to L). Upon confirmation of tumor establishment, animals were randomly allocated into 3 (A, s.c.) or 2 (B, i.e.) treatment groups (n=8 animals per group) consisting of vehicle (0.5% methycellulose, 1% Tween 80 P.O. and saline I.V.) or Compound of formula (I) [CoF (I)] formulated as a suspension in 0.5% methycellulose and 1% Tween 80. The treatments were administered over a 28 day cycle and compound of formula (I) was administered orally at a dose of either 30 mg/kg (for both A and B) or 60 mg/kg (for A only), once daily (QD)). […] Mortality and observed clinical signs were recorded for individual animals in detail.

## Cc1cc(Nc2ncc3c(n2)N(C)CN(c2c(Cl)cccc2Cl)C3=O)ccc1C1CCN(C)CC1 [Compound of formula (I)]
[1]; individual animals
  Brain:plasma concentration ratio, at 24 h post last dose: 4.18 and 4.57
  Plasma concentration at 24 h post last dose: 929 ng/mL and 632 ng/mL
[1]; left forebrain, individual animals
  Brain concentration at 24 h post last dose: 3885 ng/g tissue and 2886 ng/g tissue
[1]; individual animals, read-out: Brain:plasma concentration ratio, at 24 h post last dose
  Kp at 24 h: 4.2
[1]; read-out: Mean brain:plasma ratio (±SD), at 24 h post last dose (n = 3)
  Kp at 24 h: 4.32 ± 0.22
[1]; brain (left forebrain), left forebrain, individual animals, read-out: Brain concentration at 24 h post last dose
  concentration at 24 h: 4790 ng/g
[1]; plasma, individual animals, read-out: Plasma concentration at 24 h post last dose
  concentration at 24 h: 1140 ng/mL
U87-MG-luc GBM cell line
  Tumor size (relative BLI) vs vehicle controls at end of treatment: significantly smaller tumors than vehicle controls
